In brackets after ≈: the same amount, converted by molar mass. Where two headings read alike, the source gives them in different places. Marks after values point to notes of the source that are not given here.
Assays:
S. pneumoniae ATCC 49619 = assay: MIC by resazurin microplate assay (broth microdilution); format: cell-based, Streptococcus pneumoniae
CaFADS FMNAT activity = biological target: T1, CaFADS FMNAT activity (Corynebacterium ammoniagenes, UniProt Q59263); assay: FMNAT activity of CaFADS: residual activity, IC50, inhibition mechanism (HPLC); format: biochemical; settings: for Inhibition mechanism / Ki: CaFADS FMNAT; for Ki: global Lineweaver–Burk fit; for remaining activity at 250 µM: pH 7, read-out: % Residual FMNAT activity; for remaining activity at 50 µM: read-out: Residual activity (FMNAT)
T1 construct: Recombinant CaFADS was overexpressed in BL21 (DE3) E. coli cells and purified as previously described; made in house; host or cells: E. coli BL21 (DE3)
Protocol: (§1) Then, the RFK and FMNAT reactions were individually assayed in the presence of the HTS hits at 25 °C. Reaction mixtures contained 50 µM ATP, 5 µM RF, 0.4 µM CaFADS in 20 mM PIPES, pH 7.0, 0.8 mM MgCl2, when assaying the RFK activity, and 50 µM ATP, 10 µM FMN, 0.4 µM CaFADS in 20 mM PIPES, pH 7.0, 10 mM MgCl2 when measuring the FMNAT reaction. […] Finally, reactions were stopped by boiling the samples at 100 °C for 5 min, and the precipitated protein was eliminated through centrifugation. The transformation of RF into FMN or FAD was evaluated through flavins separation by HPLC, as previously described. […] When assaying the HTS hits against the FMNAT activity of SpnFADS, similar conditions were used but samples contained 3 mM sodium dithionite to maintain the flavin in its reduced state. Data were processed as previously reported. All the experiments were performed in triplicate.
(§2) Experiments were performed and analysed through HPLC as described above. Positive controls (without any hit compound) were included in every reaction set. DMSO concentration was kept at 2.5% in all samples. All the experiments were performed in triplicate.
All the experiments were carried out in 20 mM PIPES, 10 mM MgCl2, pH 7.0, 2.5% DMSO at 25 °C, being the final reaction volume 500 µl. The reactions were initiated by addition of CaFADS at a final concentration of ∼40 nM, followed by 1 min incubation. The flavin composition of the supernatant was analysed as previously described. All the experiments were performed in triplicate. The effect of the inhibitors on Km and Vmax was determined by fitting the data sets to the Michaelis–Menten model. Additionally, data were globally fit to Lineweaver–Burk equations for competitive, uncompetitive, non-competitive or mixed inhibition, yielding Ki, as well as Ki′ when applying, for each compound (Equations (1–4), respectively).

CaFADS RFK activity = biological target: T2, CaFADS RFK activity (Corynebacterium ammoniagenes, UniProt Q59263); assay: RFK activity of CaFADS in the presence of HTS hits (flavins separated by HPLC); format: biochemical; settings: pH 7, read-out: % Residual RFK activity
T2 construct: Recombinant CaFADS was overexpressed in BL21 (DE3) E. coli cells and purified as previously described; made in house; host or cells: E. coli BL21 (DE3)
Protocol: as §1

CaFADS = biological target: T3, CaFADS (Corynebacterium ammoniagenes, UniProt Q59263); assay: Isothermal titration calorimetry (ITC) of hits binding to CaFADS; settings: ITC 25 °C
T3 construct: Recombinant CaFADS was overexpressed in BL21 (DE3) E. coli cells and purified as previously described; made in house; host or cells: E. coli BL21 (DE3)
Protocol: ITC experiments were performed to characterise the protein’s affinity for the selected compounds, as also the thermodynamic parameters that drive the interaction. Experiments were carried out in an AutoITC200 (MicroCal) thermostated at 25 °C. In these experiments, ∼400 µM of each compound were used to titrate ∼25 µM CaFADS contained in a 200 µL cell. However, when saturation of the protein was not reached, higher concentrations of compounds were employed. The titrations were performed by stepwise injections of the titrating compound. Up to 19 injections of 2 µl were added to the cell sample and mixed using a 1000 rpm stirrer syringe. The compounds and the protein were dissolved in 20 mM PIPES, pH 7.0, 10 mM MgCl2 and degassed prior to titration. DMSO was added to the protein and ligand samples, until reach a final concentration of 3%. The association constant (Ka), the enthalpy variation (ΔH) and the binding stoichiometry (N), were obtained through non-lineal regression of the data to a model for one or two independent binding sites, implemented in Origin 7.0 (OriginLab) as previously described[27]^,[29]. The entropic contribution (−TΔS), the Gibbs free energy (ΔG) and the dissociation constant (Kd) were obtained through essential thermodynamic equations.

SpnFADS RFK activity = SpnFADS RFK activity (Streptococcus pneumoniae, UniProt A0A0H2UPY5); assay: biochemical; settings: for IC50: compounds assayed 0–100 μM, 25 °C
Protocol: as §1, §2

SpnFADS FMNAT activity = SpnFADS FMNAT activity (Streptococcus pneumoniae, UniProt A0A0H2UPY5); assay: biochemical
Protocol: as §1, §2

[1] = test system: C. ammoniagenes ATCC 6872; assay: MIC by resazurin microplate assay (broth microdilution); format: cell-based, Corynebacterium ammoniagenes; settings: Corynebacterium ammoniagenes, ATCC6872, 16 h
[2] = test system: M. tuberculosis ATCC 27,294; assay: as above; format: cell-based, Mycobacterium tuberculosis
[3] = saturating ATP (regarding the FMN substrate)
[4] = saturating FMN (regarding the ATP substrate)
[5] = saturating ATP, varying FMN, inhibitor 0.2 μM
[6] = saturating ATP, varying FMN, inhibitor […]
[7] = saturating FMN, varying ATP, inhibitor 0.2 μM
[8] = saturating FMN, varying ATP, inhibitor 0.4 μM
[9] = saturating FMN, varying ATP, inhibitor […]
[10] = for 24: Site 1–2, average value where N ≈ 2
[11] = read-out: RFK activity Res. activity

T3 sequence (Q59263 whole entry): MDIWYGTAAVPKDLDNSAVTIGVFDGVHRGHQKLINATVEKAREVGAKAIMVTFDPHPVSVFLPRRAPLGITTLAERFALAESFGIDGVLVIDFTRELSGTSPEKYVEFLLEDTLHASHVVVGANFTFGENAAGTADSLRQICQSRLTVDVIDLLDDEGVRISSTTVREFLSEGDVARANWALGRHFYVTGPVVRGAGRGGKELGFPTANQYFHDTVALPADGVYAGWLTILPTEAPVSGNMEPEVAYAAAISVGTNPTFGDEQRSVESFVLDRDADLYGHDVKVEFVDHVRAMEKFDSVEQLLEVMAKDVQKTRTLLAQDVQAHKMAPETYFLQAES
T1 sequence (Q59263 whole entry): as above
Chain of SpnFADS FMNAT activity (A0A0H2UPY5 entry or part of it): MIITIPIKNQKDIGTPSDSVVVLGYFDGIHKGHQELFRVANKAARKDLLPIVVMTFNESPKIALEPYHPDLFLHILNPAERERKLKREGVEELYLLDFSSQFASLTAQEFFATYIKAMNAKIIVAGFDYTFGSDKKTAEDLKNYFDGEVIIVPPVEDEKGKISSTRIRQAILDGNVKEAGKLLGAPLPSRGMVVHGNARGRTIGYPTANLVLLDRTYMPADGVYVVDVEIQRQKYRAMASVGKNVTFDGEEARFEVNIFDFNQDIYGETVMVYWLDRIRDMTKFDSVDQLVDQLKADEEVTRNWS
Chain of SpnFADS RFK activity (A0A0H2UPY5 entry or part of it): as above
T2 sequence (Q59263 whole entry): as the sequence (Q59263 whole entry) above

Compound | IC50 (CaFADS FMNAT activity) [µM] | Inhibition mechanism (CaFADS FMNAT activity; [3]) | Inhibition mechanism (CaFADS FMNAT activity; [4]) | Ki (CaFADS FMNAT activity; saturating ATP, varying FMN) [µM] | Ki (CaFADS FMNAT activity; saturating FMN, varying ATP) [µM] | remaining activity at 250 µM (CaFADS FMNAT activity) [%] | remaining activity at 50 µM (CaFADS FMNAT activity) [%] | apparent kcat (CaFADS FMNAT activity; [5]) [s⁻¹] | apparent kcat (CaFADS FMNAT activity; [6]) [s⁻¹] | apparent kcat (CaFADS FMNAT activity; [7]) [s⁻¹] | apparent kcat (CaFADS FMNAT activity; [8]) [s⁻¹] | apparent kcat (CaFADS FMNAT activity; [9]) [s⁻¹] | remaining activity at 250 µM (CaFADS RFK activity) [%] | N (binding stoichiometry) (CaFADS; 3% DMSO, for 24: Site 1–2) | ΔG (CaFADS; [10]) | ΔH (CaFADS; [10]) | −TΔS (CaFADS; [10]) | further results
COc1cc(-c2ccc(/N=N/c3ccc4c(S(=O)(=O)O)cc(S(=O)(=O)O)c(N)c4c3O)c(OC)c2)ccc1/N=N/c1ccc2c(S(=O)(=O)O)cc(S(=O)(=O)O)c(N)c2c1O [HTS hit 24, Chicago sky blue 6B] | 0.4 ± 0.1 | Non-competitive | Uncompetitive | 0.07 ± 0.01 | 0.08 ± 0.03 | ≤ 5 | 3.6 ± 0.2 | 0.163 ± 0.0217 | 0.405 ± 0.0683 | 0.0717 ± 0.0067 | 0.03 ± 0.0017 | 0.12 ± 0.0067 | ≥ 75 | ≈ 2 | −8.1 ± 1.0^a kcal/mol | −4.2 ± 0.5^a kcal/mol | −3.9 ± 0.5^a kcal/mol | MIC (S. pneumoniae ATCC 49619; Streptococcus pneumoniae, ATCC49619, 10 h; read-out: Minimal inhibitory concentration (MIC) S. pneumoniae): > 64 µM; apparent kcat (CaFADS FMNAT activity; saturating ATP, varying FMN, inhibitor 0.4 μM): 0.0933 ± 0.01 s⁻¹; apparent kcat (CaFADS FMNAT activity; saturating ATP, varying FMN, inhibitor 0.6 μM): 0.095 ± 0.0217 s⁻¹; apparent kcat (CaFADS FMNAT activity; saturating FMN, varying ATP, inhibitor 0.04 μM): 0.375 ± 0.08 s⁻¹; ΔG (CaFADS; Site 3): -5.2 ± 0.7 kcal/mol; ΔH (CaFADS; Site 3): 18.4 ± 2.2 kcal/mol; −TΔS (CaFADS; Site 3): -23.6 ± 1.9 kcal/mol; N (binding stoichiometry) (CaFADS; Site 3 (low affinity site)): ≈ 1; Kd (CaFADS; Kd, 3% DMSO, for 24: Site 1–2, average value for two hit molecules where N ≈ 2): 1.1 ± 0.1 µM; Kd (CaFADS; Kd, Site 3 (low affinity site)): 161 ± 20 µM; IC50 (SpnFADS RFK activity; SpnFADS, read-out: RFK activity IC50): > 100 µM; activity at 100 µM (SpnFADS RFK activity; [11]): 84 ± 9%; activity at 100 µM (SpnFADS FMNAT activity; SpnFADS, 100 μM of each compound, 25 °C, n = 3, mean ± SD, read-out: FMNAT activity Res. activity): 0%; IC50 (SpnFADS FMNAT activity; SpnFADS, compounds assayed 0–100 μM, 25 °C, read-out: FMNAT activity IC50): 70 ± 6 µM; MIC ([1]; read-out: Minimal inhibitory concentration (MIC) C. ammoniagenes): 16 to 32 µM (≈ 14.5 to 29 µg/mL); MIC ([2]; Mycobacterium tuberculosis, ATCC27, 144 h; read-out: Minimal inhibitory concentration (MIC) M. tuberculosis): 16 to 32 µM (≈ 14.5 to 29 µg/mL)
Cc1cc2c(C(C)C)c(O)c(O)c(C=O)c2c(O)c1-c1c(C)cc2c(C(C)C)c(O)c(O)c(C=O)c2c1O [HTS hit 27, gossypol] | 0.5 ± 0.1 | Non-competitive | Competitive | 0.08 ± 0.01 | 0.06 ± 0.01 | ≤ 5 | 6.9 ± 0.8 | 0.252 ± 0.025 | 0.167 ± 0.013 | 0.37 ± 0.0233 | 0.302 ± 0.0267 | 0.285 ± 0.055 | ≥ 75 | ≈ 2 | −8.4 ± 0.9^a kcal/mol | −3.1 ± 0.1^a kcal/mol | −5.3 ± 0.4^a kcal/mol | MIC (S. pneumoniae ATCC 49619; Streptococcus pneumoniae, ATCC49619, 10 h, read-out: Minimal inhibitory concentration (MIC) S. pneumoniae): > 64 µM; apparent kcat (CaFADS FMNAT activity; saturating ATP, varying FMN, inhibitor 0.05 μM): 0.36 ± 0.0483 s⁻¹; apparent kcat (CaFADS FMNAT activity; saturating ATP, varying FMN, inhibitor 0.1 μM): 0.268 ± 0.0283 s⁻¹; apparent kcat (CaFADS FMNAT activity; saturating ATP, varying FMN, inhibitor 1 μM): 0.108 ± 0.0033 s⁻¹; apparent kcat (CaFADS FMNAT activity; saturating FMN, varying ATP, inhibitor 0.1 μM): 0.38 ± 0.0217 s⁻¹; apparent kcat (CaFADS FMNAT activity; saturating FMN, varying ATP, inhibitor 1 μM): 0.208 ± 0.0083 s⁻¹; Kd (CaFADS; 3% DMSO, for 24: Site 1–2, average value for two hit molecules where N ≈ 2, read-out: Kd): 0.7 ± 0.07 µM; IC50 (SpnFADS RFK activity; RFK activity IC50, SpnFADS): 6 ± 1 µM; remaining activity at 100 µM (SpnFADS RFK activity; [11]): 25 ± 4%; IC50 (SpnFADS FMNAT activity): 51 ± 6 µM; remaining activity at 100 µM (SpnFADS FMNAT activity; read-out: FMNAT activity Res. activity): 0%; MIC ([1]; read-out: Minimal inhibitory concentration (MIC) C. ammoniagenes, assayed 0.125–64 μM, 16 h at 37 °C, BHI): ~64 µM (≈ 33.2 µg/mL); MIC ([2]; Mycobacterium tuberculosis, ATCC27, 144 h, read-out: Minimal inhibitory concentration (MIC) M. tuberculosis): > 64 µM

Source: paper PMC7012052, “Discovery of antimicrobial compounds targeting bacterial type FAD synthetases” (Journal of Enzyme Inhibition and Medicinal Chemistry, 2017)
